What was measured:
[1] = test system: 2-HG plasma levels; test: Phase 1/2 study AG221-C-001: pharmacodynamic response (2-HG plasma levels); type: in vivo, human
Protocol: 2HG can be detected in a sample by the methods of PCT Publication No. WO 2011/050210 and US Publication No. US2012/0121515 hereby incorporated by reference in their entirety, or by analogous methods. In an exemplary method, 2HG can be detected in a sample by LC/MS. The sample is mixed 80:20 with methanol, and centrifuged at 3,000 rpm for 20 minutes at 4 degrees Celsius. The resulting supernatant can be collected and stored at −80 degrees Celsius prior to LC-MS/MS to assess 2-hydroxyglutarate levels. A variety of different liquid chromatography (LC) separation methods can be used. Each method can be coupled by negative electrospray ionization (ESI, −3.0 kV) to triple-quadrupole mass spectrometers operating in multiple reaction monitoring (MRM) mode, with MS parameters optimized on infused metabolite standard solutions. Metabolites can be separated by reversed phase chromatography using 10 mM tributyl-amine as an ion pairing agent in the aqueous mobile phase, according to a variant of a previously reported method (Luo et al. J Chromatogr A 1147, 153-64, 2007). One method allows resolution of TCA metabolites: t=0, 50% B; t=5, 95% B; t=7, 95% B; t=8, 0% B, where B refers to an organic mobile phase of 100% methanol. Another method is specific for 2-hydroxyglutarate, running a fast linear gradient from 50%-95% B (buffers as defined above) over 5 minutes. A Synergi Hydro-RP, 100 mm×2 mm, 2.1 μm particle size (Phenomonex) can be used as the column, as described above. Metabolites can be quantified by comparison of peak areas with pure metabolite standards at known concentration. Metabolite flux studies from ^13C-glutamine can be performed as described, e.g., in Munger et al. Nat Biotechnol 26, 1179-86, 2008. […]
Subjects in the dose escalation phase and Part 1 Expansion also will undergo PK/PD assessments over a 10-hour period on C1D15, C2D1, and C4D1. […] Available bone marrow biopsy samples also will be assessed for 2-HG and α-KG levels. […]

[2] = test system: rrAML with an IDH2 mutation; test: FLT3 mutation status and Compound 1 response in rrAML patients of the Example 1 trial (FoundationOne Heme panel, LabPMM PCR); type: in vivo, human
Protocol: A subset of the clinical samples from the trial described in Example 1 were analyzed at screening. Sample types included bone marrow, peripheral blood and mononuclear cells isolated from bone marrow or peripheral blood. DNAs were extracted from these samples and sequenced at Foundation Medicine (Heme Panel, see http://foundationone.com/learn.php) using next generation sequencing technique.
Overall response rate (ORR), the primary efficacy endpoint, is defined as the rate of responders including complete remission (CR), CR with incomplete platelet recovery (CRp), marrow CR (mCR) (morphologic leukemia-free state [MLFS] for subjects with AML), CR with incomplete hematologic recovery (CRi), and partial remission (PR). Other measures of clinical activity including complete remission rate (CRR), duration of remission/response, event-free survival, overall survival, and time to remission/response will be summarized.
FoundationOne Heme panel analysis was performed on 100 screening samples from rrAML patients in the trial described in Example 1. Sample types included peripheral blood and bone marrow.
Therefore, the lower frequency reported in the above study is likely due to lack of recruitment of patients with FLT3-ITD mutations.
Tables 8 provides a contingency table indicating lack of statistical significance for lower ORR observed in efficacy evaluable patients presenting with FLT3-ITD and Table 9 provides a contingency table indicating statistical significance of lower ORR seen in patients presenting with either FLT3-ITD or FLT3 point mutation (PM).

[3] = FLT3-ITD+ efficacy evaluable patients
[4] = FLT3-ITD+/PM+ patients (either FLT3-ITD or FLT3 point mutation)
[5] = FLT3-ITD− efficacy evaluable patients

CC(C)(O)CNc1nc(Nc2ccnc(C(F)(F)F)c2)nc(-c2cccc(C(F)(F)F)n2)n1 [COMPOUND 1, 2-methyl-1-[(4-[6-(trifluoromethyl)pyridin-2-yl]-6-{[2-(trifluoromethyl)pyridin-4-yl]amino}-1,3,5-triazin-2-yl)amino]propan-2-ol]
reduction in 2-HG plasma levels ([1]; by Day 1 of Cycle 2, subjects of AG221-C-001): sustained reduction
inhibition of 2-HG plasma levels ([1]; most subjects with R140Q mutation, all doses): up to 98%
exposure and inhibition of 2-HG in relation to dose ([1]; subjects with R172K mutation): Increasing dose is associated with higher exposure and inhibition of 2-HG
No Response (number of patients) [2, 3]: 3
Response (number of patients) [2, 3]: 0
ORR ([2]; FLT3-ITD+ patients): 0%
No Response (number of patients) [2, 4]: 9
Response (number of patients) [2, 4]: 1
ORR ([2]; FLT3-ITD+/PM+ patients (mFLT3)): 10.0%
No Response (number of patients) [2, 5]: 38
Response (number of patients) [2, 5]: 33
No Response (number of patients) ([2]; FLT3-ITD−/PM− patients): 42
Response (number of patients) ([2]; FLT3-ITD−/PM− patients): 40
Odds ratio (response, mFLT3 vs FLT3-ITD−/PM−) ([2]; Fisher's Exact test, p = 0.039): 0.117
Odds ratio (response, FLT3-ITD+ vs FLT3-ITD−) ([2]; Fisher's Exact test, p = 0.249): 0.164

From patent US10137130B2, “Methods of treatment of malignancies” (Celgene Corporation, priority 2016, dated 2018)
